# Experimental data published in article PMC5399447, “Neuroprotective pentapeptide CN-105 is associated with reduced sterile inflammation and improved functional outcomes in a traumatic brain injury murine model” (Scientific Reports, 2017).
# Tested on: 84 genes related to inflammatory and autoimmune processes
# Experiment: Mouse Inflammatory Response and Autoimmunity PCR Array, whole brain
# Format: in vivo
# Conditions: brain 24 h
# Description: Frozen, pulverized whole brain tissue was processed for RNA extraction from a separate cohort of treated and untreated injured animals on days 1 post-injury(CN-105, n = 4; vehicle, n = 3; Control(sham-operated), n = 3). Total RNA was extracted from frozen, pulverized whole brain tissue using RNeasy Lipid Tissue Mini Kit(Qiagen, Valencia, CA). RNA quantity and quality was assessed with the NanoDrop ND-1000 spectrophotometer(NanoDrop Technologies, Inc., Wilmington, DE) and by agarose gel electrophoresis. Only samples with a 260/280 ratio between 1.9–2.1, and a 260/230 ratio greater than 2.0, were further processed. First strand complementary DNA(cDNA) was generated from 2 μg total RNA using the RT[2] First strand kit(SABiosciences, Frederick, MD.)
# Gene expression was measured using the Mouse Inflammatory Response and Autoimmunity PCR Array(SABiosciences, Frederick, MD), which profiles the expression of 84 genes related to inflammatory and autoimmune processes. RT-PCR was performed according to manufacturer’s instructions Quality of the cDNA and PCR efficiency was verified by housekeeping genes and RT-PCR controls included in the PCR Array.
# Raw RT-PCR data were analyzed using the Web-Based PCR Array Data Analysis software(SABiosciences). ΔCt values and ΔΔCt - based fold-change were calculated from raw threshold cycle data, using beta-actin and glyceraldehyde 3-phosphate dehydrogenase(GAPDH) as internal standards for normalization. Fold changes were then normalized against sham-operated controls.
substance,measurement,setting,value
Ac-VSRRR-amide [CN-105],"Il22ra2 ΔCt value, S-CN-105",sham + CN-105 0.05 mg/kg iv,1.1E − 04
same,"Il22 ΔCt value, S-CN-105",sham + CN-105 0.05 mg/kg iv,4.7E − 04
same,"Il23a ΔCt value, S-CN-105",sham + CN-105 0.05 mg/kg iv,8.0E − 05
same,"Il23r ΔCt value, S-CN-105",sham + CN-105 0.05 mg/kg iv,1.5E − 04
same,"Itgb2 ΔCt value, S-CN-105",sham + CN-105 0.05 mg/kg iv,1.3E − 02
same,"Kng1 ΔCt value, S-CN-105",sham + CN-105 0.05 mg/kg iv,1.4E − 05
same,"Lta ΔCt value, S-CN-105",sham + CN-105 0.05 mg/kg iv,2.6E − 04
same,"Ltb ΔCt value, S-CN-105",sham + CN-105 0.05 mg/kg iv,1.0E − 03
same,"Ly96 ΔCt value, S-CN-105",sham + CN-105 0.05 mg/kg iv,7.2E − 03
same,"Myd88 ΔCt value, S-CN-105",sham + CN-105 0.05 mg/kg iv,1.1E − 03
same,"Nfatc3 ΔCt value, S-CN-105",sham + CN-105 0.05 mg/kg iv,2.1E − 02
same,"Nfkb1 ΔCt value, S-CN-105",sham + CN-105 0.05 mg/kg iv,3.1E − 02
same,"Nos2 ΔCt value, S-CN-105",sham + CN-105 0.05 mg/kg iv,8.9E − 05
same,"Nr3c1 ΔCt value, S-CN-105",sham + CN-105 0.05 mg/kg iv,4.0E − 01
same,"Ripk2 ΔCt value, S-CN-105",sham + CN-105 0.05 mg/kg iv,1.1E − 02
same,"Tirap ΔCt value, S-CN-105",sham + CN-105 0.05 mg/kg iv,7.8E − 03
same,"Tlr1 ΔCt value, S-CN-105",sham + CN-105 0.05 mg/kg iv,1.0E − 03
same,"Tlr2 ΔCt value, S-CN-105",sham + CN-105 0.05 mg/kg iv,1.3E − 03
same,"Tlr3 ΔCt value, S-CN-105",sham + CN-105 0.05 mg/kg iv,2.3E − 02
same,"Tlr4 ΔCt value, S-CN-105",sham + CN-105 0.05 mg/kg iv,3.5E − 03
same,"Tlr5 ΔCt value, S-CN-105",sham + CN-105 0.05 mg/kg iv,6.3E − 04
same,"Tlr6 ΔCt value, S-CN-105",sham + CN-105 0.05 mg/kg iv,6.2E − 04
same,"Tlr7 ΔCt value, S-CN-105",sham + CN-105 0.05 mg/kg iv,2.6E − 03
same,"Tnf ΔCt value, S-CN-105",sham + CN-105 0.05 mg/kg iv,3.5E − 05
same,"Tnfsf14 ΔCt value, S-CN-105",sham + CN-105 0.05 mg/kg iv,1.3E − 04
same,"Tollip ΔCt value, S-CN-105",sham + CN-105 0.05 mg/kg iv,3.2E − 01
same,Bcl6 fold change S-CN-105/S-v,sham CN-105 vs sham vehicle,1.3
same,C3ar1 fold change S-CN-105/S-v,sham CN-105 vs sham vehicle,1.2
same,C3 fold change S-CN-105/S-v,sham CN-105 vs sham vehicle,1.7
same,C4b fold change S-CN-105/S-v,sham CN-105 vs sham vehicle,2.0
same,Ccl2 fold change S-CN-105/S-v,sham CN-105 vs sham vehicle,1.4
same,Ccl3 fold change S-CN-105/S-v,sham CN-105 vs sham vehicle,1.6
same,Ccl4 fold change S-CN-105/S-v,sham CN-105 vs sham vehicle,1.0
same,Ccl5 fold change S-CN-105/S-v,sham CN-105 vs sham vehicle,1.2
same,Ccl7 fold change S-CN-105/S-v,sham CN-105 vs sham vehicle,1.3
same,Ccl8 fold change S-CN-105/S-v,sham CN-105 vs sham vehicle,2.8
same,Ccl11 fold change S-CN-105/S-v,sham CN-105 vs sham vehicle,3.2
same,Ccl12 fold change S-CN-105/S-v,sham CN-105 vs sham vehicle,1.8
same,Ccl17 fold change S-CN-105/S-v,sham CN-105 vs sham vehicle,1.6
same,Ccl19 fold change S-CN-105/S-v,sham CN-105 vs sham vehicle,1.5
same,Ccl20 fold change S-CN-105/S-v,sham CN-105 vs sham vehicle,4.4
same,Ccl22 fold change S-CN-105/S-v,sham CN-105 vs sham vehicle,3.1
same,Ccl24 fold change S-CN-105/S-v,sham CN-105 vs sham vehicle,3.0
same,Ccl25 fold change S-CN-105/S-v,sham CN-105 vs sham vehicle,2.6
same,Ccr1 fold change S-CN-105/S-v,sham CN-105 vs sham vehicle,−1.1
same,Ccr2 fold change S-CN-105/S-v,sham CN-105 vs sham vehicle,2.1
same,Ccr3 fold change S-CN-105/S-v,sham CN-105 vs sham vehicle,1.2
same,Ccr4 fold change S-CN-105/S-v,sham CN-105 vs sham vehicle,1.5
same,Ccr7 fold change S-CN-105/S-v,sham CN-105 vs sham vehicle,1.8
same,Cd40 fold change S-CN-105/S-v,sham CN-105 vs sham vehicle,1.5
same,Cebpb fold change S-CN-105/S-v,sham CN-105 vs sham vehicle,1.6
same,Csf1 fold change S-CN-105/S-v,sham CN-105 vs sham vehicle,1.7
same,Cxcl1 fold change S-CN-105/S-v,sham CN-105 vs sham vehicle,2.7
same,Cxcl2 fold change S-CN-105/S-v,sham CN-105 vs sham vehicle,4.2
same,Cxcl3 fold change S-CN-105/S-v,sham CN-105 vs sham vehicle,0.8
same,Cxcl5 fold change S-CN-105/S-v,sham CN-105 vs sham vehicle,1.7
same,Cxcl9 fold change S-CN-105/S-v,sham CN-105 vs sham vehicle,1.5
same,Cxcl10 fold change S-CN-105/S-v,sham CN-105 vs sham vehicle,2.1
same,Cxcl11 fold change S-CN-105/S-v,sham CN-105 vs sham vehicle,3.8
same,Cxcr4 fold change S-CN-105/S-v,sham CN-105 vs sham vehicle,1.5
same,Fasl fold change S-CN-105/S-v,sham CN-105 vs sham vehicle,0.9
same,Flt3l fold change S-CN-105/S-v,sham CN-105 vs sham vehicle,1.5
same,Fos fold change S-CN-105/S-v,sham CN-105 vs sham vehicle,1.6
same,Hdac4 fold change S-CN-105/S-v,sham CN-105 vs sham vehicle,1.5
same,Ifng fold change S-CN-105/S-v,sham CN-105 vs sham vehicle,0.8
same,Il1a fold change S-CN-105/S-v,sham CN-105 vs sham vehicle,1.4
same,Il1b fold change S-CN-105/S-v,sham CN-105 vs sham vehicle,1.8
same,Il1r1 fold change S-CN-105/S-v,sham CN-105 vs sham vehicle,2.6
same,Il1rap fold change S-CN-105/S-v,sham CN-105 vs sham vehicle,1.5
same,Il6 fold change S-CN-105/S-v,sham CN-105 vs sham vehicle,−1.3
same,Il6ra fold change S-CN-105/S-v,sham CN-105 vs sham vehicle,1.5
same,Il7 fold change S-CN-105/S-v,sham CN-105 vs sham vehicle,3.1
same,Il8rb fold change S-CN-105/S-v,sham CN-105 vs sham vehicle,7.3
same,Il10 fold change S-CN-105/S-v,sham CN-105 vs sham vehicle,5.7
same,Il10rb fold change S-CN-105/S-v,sham CN-105 vs sham vehicle,2.0
same,Il18 fold change S-CN-105/S-v,sham CN-105 vs sham vehicle,2.0
same,Il22 fold change S-CN-105/S-v,sham CN-105 vs sham vehicle,10.8
same,Il22ra2 fold change S-CN-105/S-v,sham CN-105 vs sham vehicle,4.8
same,Il23a fold change S-CN-105/S-v,sham CN-105 vs sham vehicle,3.0
same,Il23r fold change S-CN-105/S-v,sham CN-105 vs sham vehicle,1.4
same,Itgb2 fold change S-CN-105/S-v,sham CN-105 vs sham vehicle,2.5
same,Lta fold change S-CN-105/S-v,sham CN-105 vs sham vehicle,2.3
same,Ltb fold change S-CN-105/S-v,sham CN-105 vs sham vehicle,2.0
same,Ly96 fold change S-CN-105/S-v,sham CN-105 vs sham vehicle,1.9
same,Myd88 fold change S-CN-105/S-v,sham CN-105 vs sham vehicle,1.5
same,Nfatc3 fold change S-CN-105/S-v,sham CN-105 vs sham vehicle,2.4
same,Nfkb1 fold change S-CN-105/S-v,sham CN-105 vs sham vehicle,1.8
same,Nos2 fold change S-CN-105/S-v,sham CN-105 vs sham vehicle,1.0
same,Nr3c1 fold change S-CN-105/S-v,sham CN-105 vs sham vehicle,2.0
same,Ripk2 fold change S-CN-105/S-v,sham CN-105 vs sham vehicle,1.5
same,Tirap fold change S-CN-105/S-v,sham CN-105 vs sham vehicle,2.1
same,Tlr1 fold change S-CN-105/S-v,sham CN-105 vs sham vehicle,2.2
same,Tlr2 fold change S-CN-105/S-v,sham CN-105 vs sham vehicle,1.4
same,Tlr3 fold change S-CN-105/S-v,sham CN-105 vs sham vehicle,1.6
same,Tlr4 fold change S-CN-105/S-v,sham CN-105 vs sham vehicle,1.1
same,Tlr5 fold change S-CN-105/S-v,sham CN-105 vs sham vehicle,0.9
same,Tlr6 fold change S-CN-105/S-v,sham CN-105 vs sham vehicle,1.3
same,Tlr7 fold change S-CN-105/S-v,sham CN-105 vs sham vehicle,1.6
same,Tnf fold change S-CN-105/S-v,sham CN-105 vs sham vehicle,1.3
same,Tnfsf14 fold change S-CN-105/S-v,sham CN-105 vs sham vehicle,5.2
same,Tollip fold change S-CN-105/S-v,sham CN-105 vs sham vehicle,1.9
same,"downregulation of gene expression, sham CN-105 vs sham vehicle","sham mice, 0.05 mg/kg",No downregulation of gene expression was observed
